Assay results: paper PMC10009755, “Discovery and Characterization of BAY-805, a Potent and Selective Inhibitor of Ubiquitin-Specific Protease USP21” (Journal of Medicinal Chemistry, 2023)
Like-named read-outs stand apart in the source and are kept apart here.

Key:
[1] = target: T1, USP21 (Homo sapiens, UniProt Q9UK80); assay: Thermal shift assay (TSA); type: binding; design: purchased Ubiquigent (DUBprofiler service); conditions: 100 μM compound
T1 sequence (Q9UK80 1-565): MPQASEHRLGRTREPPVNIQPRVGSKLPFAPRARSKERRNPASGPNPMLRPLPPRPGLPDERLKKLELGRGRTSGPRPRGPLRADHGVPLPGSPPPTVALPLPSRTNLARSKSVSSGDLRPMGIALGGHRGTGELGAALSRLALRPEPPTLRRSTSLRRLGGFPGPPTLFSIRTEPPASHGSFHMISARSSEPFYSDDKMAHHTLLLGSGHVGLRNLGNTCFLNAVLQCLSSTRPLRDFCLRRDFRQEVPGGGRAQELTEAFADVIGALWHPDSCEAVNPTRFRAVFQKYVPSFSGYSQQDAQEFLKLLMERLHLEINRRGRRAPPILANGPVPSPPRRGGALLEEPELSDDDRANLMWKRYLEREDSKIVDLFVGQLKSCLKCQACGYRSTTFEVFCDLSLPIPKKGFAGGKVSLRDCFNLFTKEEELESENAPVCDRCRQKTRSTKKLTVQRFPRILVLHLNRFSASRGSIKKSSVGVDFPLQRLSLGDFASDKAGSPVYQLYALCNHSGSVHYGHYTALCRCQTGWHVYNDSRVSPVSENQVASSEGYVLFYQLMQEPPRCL
Description: Experiments were carried out with the QuantStudio7 Flex Real-Time PCR system (Thermo Fisher Scientific) in a 384-well plate format with 5 μL of reaction volume. Melting curves were obtained at an USP21 protein concentration of 3.8 μM and 5xSYPRO Orange (Invitrogen) using a buffer containing 20 mM Tris, pH 7.5; 150 mM NaCl; 10% glycerol; and 1.0 mM TCEP. […] For binding experiments, compounds were added from 10 mM stock solution to a final concentration of 100 μM. As a control, 1% DMSO was used. Scans were measured from 25 to 95 °C at a scanning rate of 4 °C/min. All TSA data were analyzed using a Genedata Assay Analyzer.

[2] = target: T2, USP2 (Homo sapiens, UniProt O75604); assay: Thermal shift assay (TSA); type: binding; conditions: 100 μM compound
T2 construct: His tag
T2 sequence (O75604 259-605): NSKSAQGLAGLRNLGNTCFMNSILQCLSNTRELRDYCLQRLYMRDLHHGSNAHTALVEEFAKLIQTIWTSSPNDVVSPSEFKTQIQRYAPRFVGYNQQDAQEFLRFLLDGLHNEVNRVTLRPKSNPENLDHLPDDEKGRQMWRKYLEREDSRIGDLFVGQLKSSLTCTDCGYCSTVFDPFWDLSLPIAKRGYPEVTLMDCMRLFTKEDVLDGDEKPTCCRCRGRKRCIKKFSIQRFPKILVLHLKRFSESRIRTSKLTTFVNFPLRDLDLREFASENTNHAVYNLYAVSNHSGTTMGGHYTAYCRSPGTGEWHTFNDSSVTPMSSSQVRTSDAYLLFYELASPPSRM

[3] = test system: panel of 10 individual USPs; assay: SGC USP selectivity screen, whole panel; type: biochemical; conditions: 10 and 50 μM
[4] = target: T2, USP2; assay: hUSP2 Ub-rhodamine 110 assay; type: biochemical; conditions: arithmetic means of multiple measurements; read-out: IC50 hUSP2 Ub-Rhod
Description: The final assay volume was 6 μL.

[5] = target: T1, USP21
[6] = target: T3, USP21 (Homo sapiens, UniProt Q9UK80); assay: SPR binding; conditions: equilibrium binding, 15 °C
T3 construct: made in house; host or cells: E. coli BL21(DE3)

[7] = log D measurement (HPLC); type: physicochemical; conditions: reverse-phase HPLC, pH 7.5, pH 7.5, HPLC method; read-out: logD7.5
Description: log D values at pH 7.5 were recorded using an indirect method for determining hydrophobicity constants by reverse-phase HPLC. A series of compounds with well-known log D values were used for calibration. Test compounds were injected into the same HPLC system. The lipophilicity of compounds was then assessed by comparison to the calibration curve.

[8] = target: T1, USP21; remark: listed apart in the source
[9] = target: T1, USP21; assay: Ubiquitin aminoluciferin (Ub-AML) assay; type: biochemical; design: […]; ZZ tag; made in house
Description: The final assay volume was 8 μL. […] The reaction was stopped with 2 μL of 200 μM PR619. Then, 2 μL of luciferin detection reagent (Promega V8920/1) was used to detect luciferin at a final concentration of 0.5-fold. For the luminescence detection, 1536-well plates (Greiner, white) were measured on the ViewLux at 120 s exposure time.

[10] = target: T4, USP7 (Homo sapiens, UniProt Q93009); assay: Thermal shift assay (TSA); type: binding; conditions: 100 μM compound
T4 construct: purchased Ubiquigent (DUBprofiler service)

[11] = target: T5, Muscarinic M1 (Homo sapiens, UniProt P11229); assay: Eurofins Panlabs safety screen; type: binding
T5 construct: Eurofins Panlabs

[12] = target: Dopamine D2L (Homo sapiens, UniProt P14416); assay: Eurofins Panlabs safety screen; type: binding
[13] = target: T6, Muscarinic M2 (Homo sapiens, UniProt P08172); assay: Eurofins Panlabs safety screen; type: binding
T6 construct: Eurofins Panlabs
T6 sequence (P08172 whole entry): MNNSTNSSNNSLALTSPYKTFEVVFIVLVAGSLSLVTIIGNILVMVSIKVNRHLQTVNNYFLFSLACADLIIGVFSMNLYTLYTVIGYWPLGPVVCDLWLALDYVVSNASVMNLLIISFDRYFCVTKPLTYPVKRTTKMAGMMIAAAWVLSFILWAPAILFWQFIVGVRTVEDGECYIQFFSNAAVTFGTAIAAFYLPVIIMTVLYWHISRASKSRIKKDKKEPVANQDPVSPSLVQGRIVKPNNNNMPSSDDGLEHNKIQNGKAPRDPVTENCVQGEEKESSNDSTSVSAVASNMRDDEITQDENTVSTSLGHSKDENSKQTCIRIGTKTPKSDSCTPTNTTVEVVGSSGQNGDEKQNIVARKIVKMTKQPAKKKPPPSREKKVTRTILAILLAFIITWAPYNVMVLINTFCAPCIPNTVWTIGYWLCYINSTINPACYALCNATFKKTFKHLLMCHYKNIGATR

[14] = target: T7, Serotonin (5-Hydroxytryptamine) 5-HT2C (Homo sapiens, UniProt P28335); assay: Eurofins Panlabs safety screen; type: binding
T7 construct: Eurofins Panlabs
T7 sequence (P28335 33-458): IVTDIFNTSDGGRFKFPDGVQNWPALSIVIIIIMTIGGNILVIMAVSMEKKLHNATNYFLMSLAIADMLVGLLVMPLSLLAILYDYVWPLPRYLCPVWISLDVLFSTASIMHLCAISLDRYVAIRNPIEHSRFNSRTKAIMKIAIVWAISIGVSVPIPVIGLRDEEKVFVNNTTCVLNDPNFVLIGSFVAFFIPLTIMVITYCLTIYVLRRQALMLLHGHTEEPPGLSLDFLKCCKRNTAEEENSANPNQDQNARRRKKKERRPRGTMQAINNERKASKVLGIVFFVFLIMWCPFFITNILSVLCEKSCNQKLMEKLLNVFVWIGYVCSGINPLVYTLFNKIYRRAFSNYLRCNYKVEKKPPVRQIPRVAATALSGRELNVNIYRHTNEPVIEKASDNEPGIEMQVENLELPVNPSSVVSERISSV

[15] = target: T8, Opiate μ (OP3, MOP) (Homo sapiens, UniProt P35372); assay: Eurofins Panlabs safety screen; type: binding
T8 construct: Eurofins Panlabs

[16] = target: Dopamine D1 (Homo sapiens, UniProt P21728); assay: Eurofins Panlabs safety screen; type: binding
Chain of Dopamine D1 (P21728 whole entry): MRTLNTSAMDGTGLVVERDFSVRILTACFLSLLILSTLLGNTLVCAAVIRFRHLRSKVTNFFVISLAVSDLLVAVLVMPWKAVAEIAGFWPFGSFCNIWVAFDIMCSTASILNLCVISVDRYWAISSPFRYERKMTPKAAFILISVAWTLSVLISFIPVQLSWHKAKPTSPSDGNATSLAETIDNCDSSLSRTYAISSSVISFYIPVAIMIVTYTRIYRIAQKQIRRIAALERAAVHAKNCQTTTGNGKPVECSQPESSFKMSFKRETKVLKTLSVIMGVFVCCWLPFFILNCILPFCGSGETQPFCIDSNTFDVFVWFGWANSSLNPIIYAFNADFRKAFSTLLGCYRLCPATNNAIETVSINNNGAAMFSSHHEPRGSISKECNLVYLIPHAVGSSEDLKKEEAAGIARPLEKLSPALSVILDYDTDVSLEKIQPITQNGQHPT

[17] = target: Dopamine D3 (Homo sapiens, UniProt P35462); assay: Eurofins Panlabs safety screen; type: binding
[18] = target: T9, Adrenergic α2B (Homo sapiens, UniProt P18089); assay: Eurofins Panlabs safety screen; type: binding
T9 construct: Eurofins Panlabs
T9 sequence (P18089 whole entry): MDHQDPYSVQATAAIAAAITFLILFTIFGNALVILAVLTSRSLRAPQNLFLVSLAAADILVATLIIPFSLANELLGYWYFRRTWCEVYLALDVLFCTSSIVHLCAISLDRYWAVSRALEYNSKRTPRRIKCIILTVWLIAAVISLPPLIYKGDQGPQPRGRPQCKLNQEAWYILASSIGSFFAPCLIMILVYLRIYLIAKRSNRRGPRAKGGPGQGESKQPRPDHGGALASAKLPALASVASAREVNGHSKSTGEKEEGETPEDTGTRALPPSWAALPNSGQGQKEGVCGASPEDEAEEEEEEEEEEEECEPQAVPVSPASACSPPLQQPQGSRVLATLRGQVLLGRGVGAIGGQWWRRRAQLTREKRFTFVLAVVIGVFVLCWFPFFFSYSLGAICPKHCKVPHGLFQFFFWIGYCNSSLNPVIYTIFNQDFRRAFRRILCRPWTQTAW

[19] = target: T10, Adrenergic α1A (Homo sapiens, UniProt P35348); assay: Eurofins Panlabs safety screen; type: binding
T10 construct: Eurofins Panlabs

[20] = target: T11, Nicotinic Acetylcholine α3β4 (Homo sapiens, UniProt P30926+P32297); assay: Eurofins Panlabs safety screen; type: binding
T11 construct: Eurofins Panlabs

[21] = target: T12, PRP4(h) (Homo sapiens, UniProt Q13523); assay: Eurofins kinase panel; type: biochemical
T12 construct: purchased Eurofins (formerly Millipore/Upstate) KinaseProfiler
T12 sequence (Q13523 whole entry): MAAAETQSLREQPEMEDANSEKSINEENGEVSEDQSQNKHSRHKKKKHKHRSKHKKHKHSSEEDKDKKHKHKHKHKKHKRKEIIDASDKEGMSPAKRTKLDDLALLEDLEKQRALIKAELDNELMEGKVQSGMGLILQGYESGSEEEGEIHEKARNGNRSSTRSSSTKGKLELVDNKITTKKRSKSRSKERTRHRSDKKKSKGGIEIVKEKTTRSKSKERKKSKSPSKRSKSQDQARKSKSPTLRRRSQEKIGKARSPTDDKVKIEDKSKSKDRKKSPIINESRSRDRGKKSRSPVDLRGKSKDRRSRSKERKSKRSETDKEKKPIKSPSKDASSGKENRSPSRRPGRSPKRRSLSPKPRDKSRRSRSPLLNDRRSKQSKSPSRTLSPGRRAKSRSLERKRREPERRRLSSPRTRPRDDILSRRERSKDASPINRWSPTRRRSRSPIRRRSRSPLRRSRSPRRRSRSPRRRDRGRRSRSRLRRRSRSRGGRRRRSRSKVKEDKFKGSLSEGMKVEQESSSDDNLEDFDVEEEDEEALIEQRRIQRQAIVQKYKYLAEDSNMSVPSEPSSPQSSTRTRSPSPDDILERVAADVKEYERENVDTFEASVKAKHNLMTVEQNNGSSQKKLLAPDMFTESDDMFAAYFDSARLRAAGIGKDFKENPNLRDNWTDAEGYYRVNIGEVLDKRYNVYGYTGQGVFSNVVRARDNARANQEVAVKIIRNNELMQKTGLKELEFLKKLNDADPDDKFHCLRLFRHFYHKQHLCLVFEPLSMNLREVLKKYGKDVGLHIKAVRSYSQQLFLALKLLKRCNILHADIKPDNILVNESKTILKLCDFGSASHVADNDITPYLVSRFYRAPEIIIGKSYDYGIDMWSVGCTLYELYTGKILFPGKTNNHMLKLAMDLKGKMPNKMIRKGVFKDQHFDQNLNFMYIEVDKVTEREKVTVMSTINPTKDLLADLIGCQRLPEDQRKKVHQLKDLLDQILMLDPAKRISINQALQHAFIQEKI

[22] = target: T13, Cholinesterase, Acetyl, ACES (Homo sapiens, UniProt P22303); assay: Eurofins Panlabs safety screen; type: biochemical
T13 construct: Eurofins Panlabs
T13 sequence (P22303 32-614): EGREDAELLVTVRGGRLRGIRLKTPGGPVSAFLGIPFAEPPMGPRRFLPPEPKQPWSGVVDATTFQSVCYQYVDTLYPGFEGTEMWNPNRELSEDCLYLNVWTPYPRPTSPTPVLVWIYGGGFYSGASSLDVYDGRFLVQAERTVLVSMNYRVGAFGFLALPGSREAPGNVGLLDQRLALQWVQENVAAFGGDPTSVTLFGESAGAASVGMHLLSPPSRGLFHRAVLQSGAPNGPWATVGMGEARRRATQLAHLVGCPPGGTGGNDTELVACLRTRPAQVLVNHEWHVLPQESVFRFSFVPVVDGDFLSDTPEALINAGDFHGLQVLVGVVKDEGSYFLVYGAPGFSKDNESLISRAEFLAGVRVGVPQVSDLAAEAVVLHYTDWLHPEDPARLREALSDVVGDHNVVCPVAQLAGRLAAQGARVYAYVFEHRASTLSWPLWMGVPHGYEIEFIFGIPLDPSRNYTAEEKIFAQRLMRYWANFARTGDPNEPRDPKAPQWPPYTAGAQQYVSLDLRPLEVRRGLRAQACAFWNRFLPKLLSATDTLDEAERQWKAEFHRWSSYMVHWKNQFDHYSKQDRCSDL

[23] = target: T14, Serotonin (5-Hydroxytryptamine) 5-HT1A (Homo sapiens, UniProt P08908); assay: Eurofins Panlabs safety screen; type: binding
T14 construct: Eurofins Panlabs

[24] = target: T15, Muscarinic M3 (Homo sapiens, UniProt P20309); assay: Eurofins Panlabs safety screen; type: binding
T15 construct: Eurofins Panlabs

[25] = target: Dopamine D2S (Homo sapiens, UniProt P14416); assay: Eurofins Panlabs safety screen; type: binding
Chain of Dopamine D2S (P14416 1-414 isoform P14416-2): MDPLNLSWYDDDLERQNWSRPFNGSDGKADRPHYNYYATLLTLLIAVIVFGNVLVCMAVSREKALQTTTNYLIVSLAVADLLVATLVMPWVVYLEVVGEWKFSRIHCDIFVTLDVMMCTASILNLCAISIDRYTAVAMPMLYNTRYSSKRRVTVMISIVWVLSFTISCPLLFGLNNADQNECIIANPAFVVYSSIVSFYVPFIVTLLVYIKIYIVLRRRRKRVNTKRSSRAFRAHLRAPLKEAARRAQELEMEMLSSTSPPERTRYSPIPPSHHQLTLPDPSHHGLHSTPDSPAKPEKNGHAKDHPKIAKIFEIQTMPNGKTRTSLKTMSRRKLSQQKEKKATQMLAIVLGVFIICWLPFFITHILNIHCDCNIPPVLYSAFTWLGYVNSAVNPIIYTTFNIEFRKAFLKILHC

[26] = target: T16, Adrenergic α2A (Homo sapiens, UniProt P08913); assay: Eurofins Panlabs safety screen; type: binding
T16 construct: Eurofins Panlabs
T16 sequence (P08913 whole entry): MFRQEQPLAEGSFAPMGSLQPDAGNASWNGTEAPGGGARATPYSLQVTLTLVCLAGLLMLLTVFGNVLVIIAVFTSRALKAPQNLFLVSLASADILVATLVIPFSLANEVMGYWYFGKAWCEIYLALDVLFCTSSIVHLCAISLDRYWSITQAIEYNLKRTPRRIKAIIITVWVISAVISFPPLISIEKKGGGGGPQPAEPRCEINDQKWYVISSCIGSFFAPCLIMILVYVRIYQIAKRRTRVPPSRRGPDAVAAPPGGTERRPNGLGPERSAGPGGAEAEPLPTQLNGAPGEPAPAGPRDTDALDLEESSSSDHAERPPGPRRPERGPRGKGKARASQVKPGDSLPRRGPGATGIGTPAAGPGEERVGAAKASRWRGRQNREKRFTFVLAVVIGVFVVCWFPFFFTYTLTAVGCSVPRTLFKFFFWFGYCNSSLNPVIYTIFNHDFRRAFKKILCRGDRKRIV

[27] = target: T17, Muscarinic M4 (Homo sapiens, UniProt P08173); assay: Eurofins Panlabs safety screen; type: binding
T17 construct: Eurofins Panlabs

[28] = target: T18, Opiate δ1 (OP1, DOP) (Homo sapiens, UniProt P41143); assay: Eurofins Panlabs safety screen; type: binding
T18 construct: Eurofins Panlabs

[29] = target: T19, Serotonin (5-Hydroxytryptamine) 5-HT2A (Homo sapiens, UniProt P28223); assay: Eurofins Panlabs safety screen; type: binding
T19 construct: Eurofins Panlabs
T19 sequence (P28223 whole entry): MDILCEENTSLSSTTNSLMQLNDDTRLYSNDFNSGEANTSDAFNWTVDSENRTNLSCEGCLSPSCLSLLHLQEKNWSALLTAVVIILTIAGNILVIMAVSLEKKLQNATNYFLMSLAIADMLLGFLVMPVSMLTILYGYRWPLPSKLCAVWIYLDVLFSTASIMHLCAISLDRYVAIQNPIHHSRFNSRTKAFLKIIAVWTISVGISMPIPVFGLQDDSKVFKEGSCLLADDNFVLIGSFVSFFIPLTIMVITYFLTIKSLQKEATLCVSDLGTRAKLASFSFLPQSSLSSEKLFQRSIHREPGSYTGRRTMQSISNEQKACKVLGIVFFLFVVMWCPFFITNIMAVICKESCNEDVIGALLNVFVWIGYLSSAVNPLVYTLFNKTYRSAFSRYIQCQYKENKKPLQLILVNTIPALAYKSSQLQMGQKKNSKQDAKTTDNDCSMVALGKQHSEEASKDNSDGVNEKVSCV

[30] = target: Cannabinoid CB1 (Homo sapiens, UniProt P21554); assay: Eurofins Panlabs safety screen; type: binding
[31] = target: T20, Adrenergic α2C (Homo sapiens, UniProt P18825); assay: Eurofins Panlabs safety screen; type: binding
T20 construct: Eurofins Panlabs

[32] = target: T21, Serotonin (5-Hydroxytryptamine) 5-HT2B (Homo sapiens, UniProt P41595); assay: Eurofins Panlabs safety screen; type: binding
T21 construct: Eurofins Panlabs

[33] = target: Androgen (Testosterone) (Homo sapiens, UniProt P10275); assay: Eurofins Panlabs safety screen; type: binding
[34] = target: Cannabinoid CB2 (Homo sapiens, UniProt P34972); assay: Eurofins Panlabs safety screen; type: binding
[35] = target: T22, Fms(h) (Homo sapiens, UniProt P07333); assay: Eurofins kinase panel; type: biochemical
T22 construct: purchased Eurofins (formerly Millipore/Upstate) KinaseProfiler

[36] = target: T23, Opiate κ (OP2, KOP) (Homo sapiens, UniProt P41145); assay: Eurofins Panlabs safety screen; type: binding
T23 construct: Eurofins Panlabs

SMILES	inhibition at 10 µM [11]	inhibition at 10 µM [12]	inhibition at 10 µM [13]	inhibition at 10 µM [14]	inhibition at 10 µM [15]	inhibition at 10 µM [16]	inhibition at 10 µM [17]	inhibition at 10 µM [18]	inhibition at 10 µM [19]	inhibition at 10 µM [20]	inhibition at 10 µM [21]	IC50 [22]	inhibition at 10 µM [22]	inhibition at 0.1 µM ([22]; IC50 determination)	inhibition at 0.3 µM ([22]; IC50 determination)	inhibition at 1 µM ([22]; IC50 determination)	inhibition at 3 µM ([22]; IC50 determination)	inhibition at 10 µM ([22]; IC50 determination)	inhibition at 30 µM ([22]; IC50 determination)	inhibition at 10 µM [23]	further results
CC(NC(=O)C1CCCC1)C(=O)Nc1nnc(Cc2ccc([N+](=O)[O-])cc2)s1 (stereo not drawn) [Compound 1, CC(NC(=O)C1CCCC1)C(=O)Nc2nnc(Cc3ccc(cc3)[N+](=O)[O-])s2]	–	–	–	–	–	–	–	–	–	–	–	–	–	–	–	–	–	–	–	–	ΔTm at 100 µM [1]: 4.9 °C; ΔTm at 100 µM [2]: 0 °C; inhibition of other tested DUB targets besides USP21 [3]: ≤ 50%; IC50 [4]: > 25 µM; IC50 [5]: > 22.5 µM; Kd [6]: 7.87 µM; chromatographic logD [7]: 2.3; IC50 [8]: 11.8 µM; IC50 [9]: > 22.5 µM; ΔTm at 100 µM [10]: 0 °C
CC(C)C[C@@H](NC(=O)C1(C(F)(F)F)CCCCC1)C(=O)Nc1nnc(Cc2ccc(C#N)cc2)s1 [Compound 21, N-[(1R)-1-[[5-[(4-Cyanophenyl)methyl]-1,3,4-thiadiazol-2-yl]carbamoyl]-3-methyl-butyl]-1-(trifluoromethyl)cyclohexanecarboxamide]	18%	8%	2%	-5%	-1%	-3%	9%	4%	1%	-3%	8.18%	7.61 µM	72%	15%	16%	11%	4%	74%	74%	2%	inhibition at 10 µM [24]: 7%; inhibition at 10 µM [25]: 24%; inhibition at 10 µM [26]: 14%; inhibition at 10 µM [27]: -4%; inhibition at 10 µM [28]: -5%; inhibition at 10 µM [29]: 4%; inhibition at 10 µM [30]: 8%; inhibition at 10 µM [31]: 6%; inhibition at 10 µM [32]: 3%; inhibition at 10 µM [33]: 4%; inhibition at 10 µM [34]: 1%; inhibition at 10 µM [35]: 3.41%
CC(C)C[C@H](NC(=O)C1(C(F)(F)F)CCCCC1)C(=O)Nc1nnc(Cc2ccc(C#N)cc2)s1 [Compound 22, CC(C)C[C@H](NC(=O)C1(CCCCC1)C(F)(F)F)C(=O)Nc2nnc(Cc3ccc(cc3)C#N)s2]	36%	17%	24%	14%	-3%	2%	2%	1%	13%	-1%	-7.38%	6.87 µM	75%	18%	4%	19%	8%	76%	78%	5%	inhibition at 10 µM [36]: 12%; inhibition at 10 µM [24]: 4%; inhibition at 10 µM [25]: 25%; inhibition at 10 µM [26]: 13%; inhibition at 10 µM [27]: -8%; inhibition at 10 µM [28]: 5%; inhibition at 10 µM [29]: 2%; inhibition at 10 µM [30]: 3%; inhibition at 10 µM [31]: 12%; inhibition at 10 µM [32]: 2%; inhibition at 10 µM [33]: 7%; inhibition at 10 µM [34]: 4%; inhibition at 10 µM [35]: 0.62%
